Data reported in patent US20240277698A1, “METHODS OF USING ALDOSTERONE SYNTHASE INHIBITORS” (CINCOR PHARMA, INC., priority 2021, published 2024).
Read-outs that look alike come from different tables or passages of the source.

Tests used:
[1] = target: aldosterone synthase (Homo sapiens, UniProt P19099); conditions: cited from earlier work
[2] = Treatment B: single 1000 mg metformin + 10 mg Compound 1
[3] = Metformin drug-drug interaction study: urine pharmacokinetics of metformin; format: in vivo, human
[4] = clinical; conditions: human, in vivo, 1000 mg; for AUC(0-inf): Metformin plasma AUC0-inf; for AUC(0-t): Metformin plasma AUC0-t
[5] = Metformin drug-drug interaction study: safety (TEAEs); conditions: for Any TEAEs leading to death, number of events / Any TEAEs leading to death, subjects: Treatment A = 1000 mg metformin alone (N = 26), Treatment B = 1000 mg metformin + 10 mg Compound 1 (N = 27)
Experimental: Safety was assessed throughout the study based on adverse events (AEs), physical examinations, weight measurements, electrocardiograms (ECGs), vital signs assessments (seated and orthostatic), and clinical laboratory evaluations.
The following safety assessments were performed: • AEs and SAEs; • Clinical laboratory test assessments; • Vital signs including heart rate, blood pressure (BP) (including orthostatic BP when indicated), respiration rate, and temperature; • 12-lead ECGs; • Physical examinations; and • Height, weight, and BMI.
Safety analyses were performed throughout the study based on the Safety Population. Safety was evaluated through assessments of AEs, physical examinations, ECGs, weight measurements, vital signs assessments (seated and orthostatic), and clinical laboratory evaluations.
A TEAE was defined as an AE that emerged, having been absent prior to the study, or an AE that worsened in severity after the first dose of any drug in this study. TEAEs were summarized by MedDRA SOC and PT for each treatment and overall. The number and percentage of subjects experiencing TEAEs and the number of TEAEs were tabulated. Subjects reporting more than 1 AE for a given MedDRA PT were counted only once for that term using the most severe incident. Subjects reporting more than 1 type of event within a SOC were counted only once for that SOC. The Safety Population was used for all the safety analyses.

[6] = Treatment A: single 1000 mg metformin alone
[7] = Treatment B: single 1000 mg metformin + 10 mg Compound 1
[8] = Treatment B: 10 mg Compound 1 with single 1000 mg metformin

Sequence of aldosterone synthase (P19099 25-503, species assumed): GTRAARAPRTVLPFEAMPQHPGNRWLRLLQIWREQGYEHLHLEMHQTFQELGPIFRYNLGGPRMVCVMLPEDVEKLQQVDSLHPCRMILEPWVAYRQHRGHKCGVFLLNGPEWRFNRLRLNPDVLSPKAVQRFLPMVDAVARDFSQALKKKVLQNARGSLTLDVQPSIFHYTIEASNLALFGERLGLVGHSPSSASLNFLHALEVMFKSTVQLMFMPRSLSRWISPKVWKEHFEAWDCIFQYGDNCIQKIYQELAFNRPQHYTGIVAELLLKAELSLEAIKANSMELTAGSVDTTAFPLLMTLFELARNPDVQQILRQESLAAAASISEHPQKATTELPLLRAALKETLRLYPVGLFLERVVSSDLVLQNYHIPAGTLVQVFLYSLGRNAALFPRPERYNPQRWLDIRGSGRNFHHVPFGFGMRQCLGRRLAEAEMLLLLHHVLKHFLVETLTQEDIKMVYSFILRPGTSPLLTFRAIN

N#Cc1ccc([C@H]2CCc3cncn32)c(F)c1 [LCI1699]
specificity for aldosterone synthase ([1]; clinical trials by Novartis, discontinued): lack of specificity for aldosterone synthase
ACTH associated with aldosterone reductions ([1]; previously observed): corresponding increase in ACTH
increase in predose 11-deoxycorticosterone levels ([1]; previously observed): up to 10 fold

CN(C)C(=N)N=C(N)N [metformin]
Metformin plasma AUC0-t, Geom LS Mean [2]: 10683.45 ng·h/mL
metformin dose excreted in the urine ([3]; 1000 mg metformin, presence and absence of Compound 1): approximately 30%
Metformin urine Fe0-3, Mean (CV %) [3, 6]: 11.76 (33.0) %
Metformin urine Fe0-6, Mean (CV %) [3, 6]: 21.50 (27.2) %
Metformin urine Fe0-9, Mean (CV %) [3, 6]: 25.40 (28.1) %
Metformin urine Fe0-12, Mean (CV %) [3, 6]: 27.42 (26.2) %
Metformin urine Fe0-18, Mean (CV %) [3, 6]: 29.11 (25.6) %
Metformin urine Fe0-24, Mean (CV %) [3, 6]: 29.82 (25.1) %
Metformin urine Fe0-30, Mean (CV %) [3, 6]: 30.21 (24.9) %
Metformin urine Fe0-36, Mean (CV %) [3, 6]: 30.50 (24.7) %
Metformin urine Fe0-48, Mean (CV %) [3, 6]: 30.90 (24.5) %
Metformin urine Fe0-72, Mean (CV %) [3, 6]: 31.23 (24.2) %
Metformin urine Fe0-3, Mean (CV %) [3, 7]: 10.47 (36.6) %
Metformin urine Fe0-6, Mean (CV %) [3, 7]: 19.06 (32.4) %
Metformin urine Fe0-9, Mean (CV %) [3, 7]: 23.11 (33.8) %
Metformin urine Fe0-12, Mean (CV %) [3, 7]: 25.07 (32.5) %
Metformin urine Fe0-18, Mean (CV %) [3, 7]: 26.52 (31.3) %
Metformin urine Fe0-24, Mean (CV %) [3, 7]: 27.21 (30.6) %
Metformin urine Fe0-30, Mean (CV %) [3, 7]: 27.62 (30.3) %
Metformin urine Fe0-36, Mean (CV %) [3, 7]: 27.87 (30.0) %
Metformin urine Fe0-48, Mean (CV %) [3, 7]: 28.25 (29.4) %
Metformin urine Fe0-72, Mean (CV %) [3, 7]: 28.72 (28.9) %
AUC(0-inf) ([4]; Geom LS Mean): 11100 ng·h/mL
AUC(0-inf) ([4]; Mean (SD)): 11200 ng·h/mL
AUC(0-t) ([4]; Geom LS Mean): 11000 ng·h/mL
AUC(0-t) ([4]; Mean (SD)): 11200 ng·h/mL
Any TEAEs leading to death, number of events [5]: 0 e
Any TEAEs leading to death, subjects [5]: 0 (0.0) n (%)
subjects experiencing diarrhoea ([5]; human, in vivo): 3 (11.5%)
subjects experiencing nausea ([5]; human, in vivo): 1 (3.7%)
subjects experiencing upper abdominal pain ([5]; human, in vivo): One (3.7%)

CCC(=O)NC1CCCc2c(-c3ccc4c(c3)CCC(=O)N4C)cncc21 (stereo not drawn) [Compound 1, N-(4-(1-methyl-2-oxo-1,2,3,4-tetrahydroquinolin-6-yl)-5,6,7,8-tetrahydroisoquinolin-8-yl)propionamide]
Compound 1 plasma AUC%extrap, Mean (SD) [8]: 9.9 (5.2) %
Compound 1 plasma λz, Mean (SD) [8]: 0.033 (0.008) 1/h
Tmax (human, plasma): 1.3 h
AUC(0-t) (human, plasma, Compound 1 plasma AUC0-24, Mean (SD), Treatment B: 10 mg Compound 1 with single 1000 mg metformin): 1660 ng·h/mL
AUC(0-t) (human, plasma, Compound 1 plasma AUC0-72, Mean (SD), Treatment B: 10 mg Compound 1 with single 1000 mg metformin): 2870 ng·h/mL
effect on metformin renal clearance ([3]; 10 mg Compound 1 2 hours prior to metformin dosing): did not result in a reduction
Any TEAEs leading to death, number of events [5]: 0 e
Any TEAEs leading to death, subjects [5]: 0 (0.0) n (%)
